From patent publication US8022103B2, “Ester prodrugs of prostratin and related phorbol compounds” (Salvia Sciences, Inc., priority 2005, dated 2011) come the findings set out here.

The subject of the assay is HIV-1 isolates Ba-L and IIIB and the SIV isolate mac251. Kind of assay: PBMC-based assay, summary over all three isolates. Format: cell-based. To be noted: read-out: IC50 values against all three isolates. As for the experimental part: Compounds SA-101A and SA-101B were tested for antiviral activity against HIV-1 in peripheral blood mononuclear cells (PBMC) acutely infected with the HIV-1 isolates. PBMCs were derived from normal HIV-1 negative donors, and cultured under conditions which promote cell survival and HIV replication. Fresh human blood was obtained commercially from Biological Specialty Corporation (Colmar, Pa.). The low passage clinical isolates HIV-1Ba-L, HIVIIIB, and SIVmac251 were from the NIAID AIDS Research and Reference Reagent Program. Immediately before use, pre-titered aliquot of the viruses were removed from storage in a freezer (−80° C.) and thawed rapidly to room temperature in a biological safety cabinet. Phytohemagglutinin (PHA-P) was obtained from Sigma (St. Louis, Mo.) and recombinant IL-2 was obtained from R&D Systems Inc. (Minneapolis, Minn.). […]
PMBC assay. […] Pooling (mixing) of mononuclear cells from more than one donor is used to minimize the variability observed between individual donors, which results from quantitative and qualitative differences in HIV infection and overall response to the PHA and IL-2 of primary lymphocyte populations. […]

≈ marks a conversion by molar mass, not a printed value.

As for `CC(=O)O[C@@]12C[C@@H](C)[C@@]3(O)[C@@H](C=C(CO)C[C@]4(O)C(=O)C(C)=C[C@@H]34)[C@@H]1C2(C)C` [SA-101A, 12-deoxyphorbol 13-acetate], the IC50 is 0.05 to 0.39 µg/mL (≈ 0.128 to 0.999 µM).
